# Test results reported in patent US20240269139A1, “COMPOUNDS FOR TARGETED PROTEIN DEGRADATION OF KINASES” (DANA-FARBER CANCER INSTITUTE, INC., priority 2020, published 2024).
# Like-named read-outs stand apart in the source and are kept apart here.
# How the values were obtained:
# [1] = target: protein kinases (human kinome) (Homo sapiens, UniProt P41240); format: cell-based; details: for logFC of CSK: Accession P41240; for logFC CSK: CSK (P41240), down
# [2] = target: protein kinases (human kinome) (Homo sapiens, UniProt P24941); format: cell-based
# [3] = target: T1, extended human kinome (kinase-like proteins) (Homo sapiens, UniProt Q7L8L6); test: Whole cell quantitative proteomics: extended kinome hits; details: Accession Q7L8L6
# T1 sequence (Q7L8L6 28-764): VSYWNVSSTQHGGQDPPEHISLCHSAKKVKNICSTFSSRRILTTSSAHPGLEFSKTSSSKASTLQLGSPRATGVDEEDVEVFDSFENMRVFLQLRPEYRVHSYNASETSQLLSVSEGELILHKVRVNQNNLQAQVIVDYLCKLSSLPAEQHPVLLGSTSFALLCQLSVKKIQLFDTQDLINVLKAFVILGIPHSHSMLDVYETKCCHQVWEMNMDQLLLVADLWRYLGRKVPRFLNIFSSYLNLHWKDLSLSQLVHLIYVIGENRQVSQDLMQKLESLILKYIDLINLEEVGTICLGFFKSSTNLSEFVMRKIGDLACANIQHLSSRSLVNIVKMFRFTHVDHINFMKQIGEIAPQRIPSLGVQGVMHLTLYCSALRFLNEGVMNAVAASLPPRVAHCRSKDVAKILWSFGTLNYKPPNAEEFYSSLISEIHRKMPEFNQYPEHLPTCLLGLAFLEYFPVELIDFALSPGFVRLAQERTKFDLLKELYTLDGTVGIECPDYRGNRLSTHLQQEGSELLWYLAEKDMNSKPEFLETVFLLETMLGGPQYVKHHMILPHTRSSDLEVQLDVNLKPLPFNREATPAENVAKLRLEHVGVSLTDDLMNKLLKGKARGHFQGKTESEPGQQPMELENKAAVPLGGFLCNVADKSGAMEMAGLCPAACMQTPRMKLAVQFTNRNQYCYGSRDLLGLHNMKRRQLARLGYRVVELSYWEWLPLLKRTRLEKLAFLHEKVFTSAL
# [4] = target: extended human kinome (kinase-like proteins) (Homo sapiens, UniProt P27144); test: as above
# extended human kinome (kinase-like proteins) (Homo sapiens, UniProt P27144), sequence (P27144 whole entry): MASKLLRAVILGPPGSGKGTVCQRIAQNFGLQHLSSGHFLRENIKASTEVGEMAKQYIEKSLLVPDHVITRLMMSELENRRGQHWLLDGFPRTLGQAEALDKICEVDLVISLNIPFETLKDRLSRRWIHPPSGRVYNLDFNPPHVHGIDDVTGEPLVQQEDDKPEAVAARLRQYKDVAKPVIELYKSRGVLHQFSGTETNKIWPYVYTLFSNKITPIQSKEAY
# [5] = target: T2, protein kinases (human kinome) (Homo sapiens, UniProt Q9UEE5); format: cell-based; details: STK17A Q9UEE5
# T2 sequence (Q9UEE5 1-414): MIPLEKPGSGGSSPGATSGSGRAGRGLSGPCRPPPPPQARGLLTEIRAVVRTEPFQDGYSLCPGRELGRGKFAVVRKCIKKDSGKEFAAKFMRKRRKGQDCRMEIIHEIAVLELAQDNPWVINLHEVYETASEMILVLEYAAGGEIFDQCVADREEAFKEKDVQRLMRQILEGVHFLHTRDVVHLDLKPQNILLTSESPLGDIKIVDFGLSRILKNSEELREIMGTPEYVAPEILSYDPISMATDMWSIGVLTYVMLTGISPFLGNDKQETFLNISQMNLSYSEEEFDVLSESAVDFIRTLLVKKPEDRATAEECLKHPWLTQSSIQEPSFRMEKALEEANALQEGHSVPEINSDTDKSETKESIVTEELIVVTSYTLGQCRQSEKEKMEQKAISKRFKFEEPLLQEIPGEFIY
# [6] = target: T3, protein kinases (human kinome) (Homo sapiens, UniProt O94768); format: cell-based; details: for logFC STK17B (O94768): direction down; for logFC: STK17B (O94768)
# T3 sequence (O94768 1-372): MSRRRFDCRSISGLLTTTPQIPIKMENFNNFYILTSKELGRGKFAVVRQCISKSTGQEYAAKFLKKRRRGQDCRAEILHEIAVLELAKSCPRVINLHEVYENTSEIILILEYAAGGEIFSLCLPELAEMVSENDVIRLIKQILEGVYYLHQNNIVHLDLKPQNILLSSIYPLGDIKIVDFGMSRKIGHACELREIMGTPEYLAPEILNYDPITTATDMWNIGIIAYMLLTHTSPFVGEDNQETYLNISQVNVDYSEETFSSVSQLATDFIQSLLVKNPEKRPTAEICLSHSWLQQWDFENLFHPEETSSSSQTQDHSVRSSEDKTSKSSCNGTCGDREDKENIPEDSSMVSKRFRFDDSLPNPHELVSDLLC
# [7] = target: protein kinases (human kinome) (Homo sapiens, UniProt Q16584); format: cell-based
# protein kinases (human kinome) (Homo sapiens, UniProt Q16584), sequence (Q16584 whole entry): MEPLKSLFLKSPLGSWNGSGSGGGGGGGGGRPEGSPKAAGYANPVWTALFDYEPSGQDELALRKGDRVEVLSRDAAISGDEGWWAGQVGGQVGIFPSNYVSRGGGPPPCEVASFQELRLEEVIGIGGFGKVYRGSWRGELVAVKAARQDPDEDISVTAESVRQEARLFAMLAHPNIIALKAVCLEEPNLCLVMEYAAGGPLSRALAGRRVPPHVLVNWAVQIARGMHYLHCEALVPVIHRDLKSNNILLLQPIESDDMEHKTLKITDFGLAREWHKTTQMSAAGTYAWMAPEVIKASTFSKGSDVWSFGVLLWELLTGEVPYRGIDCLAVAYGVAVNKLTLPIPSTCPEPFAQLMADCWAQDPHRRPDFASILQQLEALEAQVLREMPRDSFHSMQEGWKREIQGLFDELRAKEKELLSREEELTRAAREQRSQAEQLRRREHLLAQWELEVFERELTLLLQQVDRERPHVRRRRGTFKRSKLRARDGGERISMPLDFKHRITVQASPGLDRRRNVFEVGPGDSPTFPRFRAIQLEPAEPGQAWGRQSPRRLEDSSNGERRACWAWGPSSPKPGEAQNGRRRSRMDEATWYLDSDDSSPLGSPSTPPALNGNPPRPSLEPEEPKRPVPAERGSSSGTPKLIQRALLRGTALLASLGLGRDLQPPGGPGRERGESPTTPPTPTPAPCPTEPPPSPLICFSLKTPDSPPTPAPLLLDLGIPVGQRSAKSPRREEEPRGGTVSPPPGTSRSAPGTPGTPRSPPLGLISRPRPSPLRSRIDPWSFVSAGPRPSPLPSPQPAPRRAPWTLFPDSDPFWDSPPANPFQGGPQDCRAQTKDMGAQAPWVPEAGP
# protein kinases (human kinome) (Homo sapiens, UniProt P41240), sequence (P41240 whole entry): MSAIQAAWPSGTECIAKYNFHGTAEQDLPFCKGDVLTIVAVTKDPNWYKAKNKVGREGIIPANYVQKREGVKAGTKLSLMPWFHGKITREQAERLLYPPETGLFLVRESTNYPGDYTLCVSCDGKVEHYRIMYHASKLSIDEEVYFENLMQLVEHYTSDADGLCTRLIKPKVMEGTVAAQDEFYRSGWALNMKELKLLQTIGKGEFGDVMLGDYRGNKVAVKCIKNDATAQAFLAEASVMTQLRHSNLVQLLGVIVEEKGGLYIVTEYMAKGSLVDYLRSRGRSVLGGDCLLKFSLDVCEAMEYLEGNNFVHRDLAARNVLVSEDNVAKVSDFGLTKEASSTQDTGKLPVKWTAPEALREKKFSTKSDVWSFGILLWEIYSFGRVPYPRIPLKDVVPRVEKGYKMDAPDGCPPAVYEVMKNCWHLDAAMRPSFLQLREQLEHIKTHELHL
smiles,measurement,setting,value
CC(C)(C)c1nc(-c2cccc(NS(=O)(=O)c3c(F)cccc3F)c2F)c(-c2ccnc(NCCOCCNC(=O)CCOCCOCCNc3cccc4c3C(=O)N(C3CCC(=O)NC3=O)C4=O)n2)s1 (centres unmarked) [DD.03.106],logFC of CSK,"[1]; experiment wp147, 4 uM",−0.5149
same,logFC CSK,"[1]; experiment wp147, 4 uM",−0.5149
same,logFC CDK2 (P24941-1),"[2]; Experiment wp147, 2 uM",−0.4932
same,logFC CDK2 (P24941-1),"[2]; Experiment wp147, 4 uM",−0.5248
same,logFC CDK2 (P24941-1),[2]; experiment wp137,−0.3437
same,logFC CDK2 (P24941-1),"[2]; experiment wp137, direction of change down",−0.3437
same,logFC CDK2 (P24941-1),"[2]; experiment wp147, 1 uM",−0.3285
same,logFC CDK2 (P24941-1),"[2]; experiment wp147, 1 uM, direction of change down",−0.3285
same,logFC CDK2 (P24941-1),"[2]; experiment wp147, 2 uM, direction of change down",−0.4932
same,logFC CDK2 (P24941-1),"[2]; experiment wp147, 4 uM, direction of change down",−0.5248
same,logFC FASTKD5,"[3]; experiment wp147, 4 uM",−0.8688
same,logFC AK4 (P27144),"[4]; experiment wp147, 4 uM",−0.5652
O=C(COc1cccc2c1C(=O)N(C1CCC(=O)NC1=O)C2=O)NCCCCCCCC(=O)NC1(c2ccc(-c3nc4ccn5c(=O)[nH]nc5c4cc3-c3ccccc3)cc2)CCC1 (centres unmarked) [INY.01.140.1],logFC FASTKD5,[3]; experiment wp081,−0.4182
same,logFC AK4 (P27144),[4]; experiment wp081,−0.4309
Cc1ccc(C(=O)Nc2ccc(CN3CCN(CCCOCCOCCOCCNC(=O)COc4cccc5c4C(=O)N(C4CCC(=O)NC4=O)C5=O)CC3)c(C(F)(F)F)c2)cc1C#Cc1cnc2cccnn12 (centres unmarked) [SB1.G.187],logFC FASTKD5,[3]; experiment wp056,−0.4238
same,logFC AK4 (P27144),[4]; experiment wp056,−0.4478
CC(C)S(=O)(=O)c1ccccc1Nc1nc(Nc2ccc(N3CCN(CCOCCNC(=O)CNc4cccc5c4C(=O)N(C4CCC(=O)NC4=O)C5=O)CC3)cc2)ncc1Cl (centres unmarked) [SK.3.91],logFC of CSK,[1]; experiment wp016,−0.3254
same,logFC of CSK,"[1]; experiment wp016, 1 uM",−0.6596
same,logFC of CSK,[1]; experiment wp103,−0.4343
same,logFC of CSK,[1]; experiment wp105,−0.7044
same,logFC of CSK,[1]; experiment wp107,−0.5646
same,logFC of CSK,"[1]; experiment wp133, 4 hr",−0.5492
same,logFC of CSK,"[1]; experiment wp160, 4 hr",−0.4976
same,logFC of CSK,[1]; experiment wp172,−0.4225
same,logFC CSK,"[1]; experiment wp016, 1 uM",−0.6596
same,logFC CSK,[1]; experiment wp016,−0.3254
same,logFC CSK,[1]; experiment wp103,−0.4343
same,logFC CSK,[1]; experiment wp105,−0.7044
same,logFC CSK,[1]; experiment wp107,−0.5646
same,logFC CSK,"[1]; experiment wp133, 4 hr",−0.5492
same,logFC CSK,"[1]; experiment wp160, 4 hr",−0.4976
same,logFC CSK,[1]; experiment wp172,−0.4225
same,logFC,"[5]; experiment wp016, 1 uM",−0.7032
same,logFC STK17A,"[5]; experiment wp016, 1 uM",−0.7032
same,logFC,[5]; experiment wp103,−0.6201
same,logFC STK17A,[5]; experiment wp103,−0.6201
same,logFC,[5]; experiment wp107,−0.6984
same,logFC STK17A,[5]; experiment wp107,−0.6984
same,logFC,"[5]; experiment wp133, 4 hr",−0.5458
same,logFC STK17A,"[5]; experiment wp133, 4 hr",−0.5458
same,logFC,[5]; experiment wp172,−0.3963
same,logFC STK17A,[5]; experiment wp172,−0.3963
same,logFC CDK2 (P24941-1),[2]; Experiment wp103,−0.4588
same,logFC CDK2 (P24941-1),"[2]; Experiment wp105, direction of change down",−0.4593
same,logFC CDK2 (P24941-1),[2]; Experiment wp107,−0.7583
same,logFC CDK2 (P24941-1),"[2]; Experiment wp160, 2 hr",−0.383
same,logFC CDK2 (P24941-1),[2]; Experiment wp172,−0.8996
same,logFC CDK2 (P24941-1),[2]; experiment wp016,−0.5115
same,logFC CDK2 (P24941-1),"[2]; experiment wp016, 1 uM",−1.047
same,logFC CDK2 (P24941-1),"[2]; experiment wp016, 1 uM, direction of change down",−1.047
same,logFC CDK2 (P24941-1),"[2]; experiment wp016, direction of change down",−0.5115
same,logFC CDK2 (P24941-1),"[2]; experiment wp103, direction of change down",−0.4588
same,logFC CDK2 (P24941-1),[2]; experiment wp105,−0.4593
same,logFC CDK2 (P24941-1),"[2]; experiment wp107, direction of change down",−0.7583
same,logFC CDK2 (P24941-1),"[2]; experiment wp133, 2 hr",−0.4306
same,logFC CDK2 (P24941-1),"[2]; experiment wp133, 2 hr, direction of change down",−0.4306
same,logFC CDK2 (P24941-1),"[2]; experiment wp133, 4 hr",−0.6908
same,logFC CDK2 (P24941-1),"[2]; experiment wp133, 4 hr, direction of change down",−0.6908
same,logFC CDK2 (P24941-1),"[2]; experiment wp160, 2 hr, direction of change down",−0.383
same,logFC CDK2 (P24941-1),"[2]; experiment wp160, 4 hr",−0.647
same,logFC CDK2 (P24941-1),"[2]; experiment wp160, 4 hr, direction of change down",−0.647
same,logFC CDK2 (P24941-1),"[2]; experiment wp172, direction of change down",−0.8996
same,logFC STK17B (O94768),"[6]; Experiment wp016, 1 uM",−0.327
same,logFC STK17B (O94768),"[6]; Experiment wp133, 4 hr",−0.545
same,logFC,"[6]; experiment wp016, 1 uM",−0.327
same,logFC,"[6]; experiment wp133, 4 hr",−0.545
same,logFC MAP3K11 (Q16584),[7]; experiment wp103,−0.7838
same,logFC MAP3K11 (Q16584),[7]; experiment wp107,−2.182
same,logFC MAP3K11 (Q16584),[7]; experiment wp114,−0.4774
same,logFC MAP3K11 (Q16584),"[7]; experiment wp133, 1 hr",−0.3986
same,logFC MAP3K11 (Q16584),"[7]; experiment wp133, 2 hr",−0.8441
same,logFC MAP3K11 (Q16584),"[7]; experiment wp133, 4 hr",−1.487
same,logFC FASTKD5,"[3]; experiment wp160, 1 hr",−0.8306
same,logFC AK4 (P27144),"[4]; experiment wp160, 1 hr",−0.8232
